Converted amounts (≈) assume the structure as drawn. Ends that are not written are not given here.
Experiments:
lipase [1] = details: ref Guo et al. 2012; cited from earlier work
Text: (§1) Antimicrobial lipopeptides have been purified from many bacterial genera including several Streptomyces spp. such as S. violaceus var. aspartocinius (aspartocin), S. griseoflavus (tsushimycin), S. viridochromogens (laspartomycin), S. coelicolor (calcium-dependent antibiotic), S. roseosporus (daptomycin), S. fradiae (A54145), S. parvulus var. parvuli (parvuline) and S. canus (amphomycin) (Schneider et al. [2009]). The present study reports the production of another novel lipopeptide from a Streptomyces sp. The primary structure of lipopeptide was determined using a combination of chemical rea ...

trypsin [2] = biological target: T1, trypsin (Bos taurus, UniProt P00760); set-up: purchased Sigma Aldrich; details: ref Guo et al. 2012; cited from earlier work
T1 sequence (P00760 24-246): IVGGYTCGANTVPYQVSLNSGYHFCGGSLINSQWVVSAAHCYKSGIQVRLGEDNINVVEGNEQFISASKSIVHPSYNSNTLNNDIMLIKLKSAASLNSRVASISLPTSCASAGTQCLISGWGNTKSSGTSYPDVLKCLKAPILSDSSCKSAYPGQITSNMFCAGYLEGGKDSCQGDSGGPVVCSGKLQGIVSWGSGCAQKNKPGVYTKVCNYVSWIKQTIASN
Text: as §1

[3] = test system: Salmonella typhimurium (TA98); test: Ames test (Salmonella reverse mutation test); format: cell-based
Description: Mutagenicity of the lipopeptide was evaluated by Ames test (Maron and Ames [1983]). This Salmonella reverse mutation test is based on histidine dependence and mutations in Salmonella typhimurium (TA98/ MTCC 1251, IMTECH, Chandigarh). Concentrations of the lipopeptide used for checking toxicity were 50 and 100 μg 0.1 ml^−1 plate^−1. The overnight grown, 0.1 ml bacterial culture and 0.1 ml of lipopeptide were added to 2.0 ml of top agar. The contents were mixed and poured onto glucose minimal agar plates immediately. The plates were […] incubated at 37°C for 48 h. The experiment was repeated to confirm the results. To determine the spontaneous reversion which is characteristic of the tester strain (TA 98), negative control (0.1 ml bacterial culture + 0.1 ml DMSO plate^−1) was run while 4-Nitro-o-phenylenediamine (20 μg 0.1 ml^−1 plate^−1) was used as a positive control mutagen. The mutagenic potential of the lipopeptide was determined by comparing the number of colonies with control plates where no test compound was added.

[4] = test system: Bacillus subtilis (MTCC 619); test: Kirby-Bauer disk diffusion susceptibility test; format: cell-based; details: 10 μg lipopeptide per 6 mm disc, Mueller-Hinton agar, 24-48 h; duplicates, repeated thrice
Description: (§2) Sensitivity of test organisms to purified lipopeptide was measured in terms of zone of inhibition using Kirby-Bauer disk diffusion susceptibility test (Bauer et al. [1966]). The plates containing Mueller-Hinton agar, yeast malt agar and potato dextrose agar were seeded with test bacteria, yeasts and fungi, respectively. Filter paper discs (6 mm) impregnated with 10 μg of lipopeptide were placed on media plates. The diameter of the resultant zone of inhibition was measured in mm after 24- 48 hours of incubation. Each experiment was performed in duplicates and repeated thrice. Various test organisms used in the study included Bacillus subtilis (MTCC 619), Mycobacterium smegmatis (MTCC 6), Staphylococcus epidermidis (MTCC 435), Escherichia coli (MTCC 1885), Klebsiella pneumoniae sub sp. pneumoniae (MTCC 109), Enterobacter aerogenes (MTCC 111), Salmonella typhi (MTCC 733), multi-drug resistant E. coli, MRSA, VRE, Candida albicans (MTCC 3017), Rhodotorula rubra (MTCC 248), Colletotrichum acutatum (MTCC 1037), Cercospora beticola (GenBank acc. no. KJ461435), Fusarium oxysporum f.sp. dianthi (MTCC 6659), and Alternaria brassicicola (MTCC 2102).

[5] = test system: Mycobacterium smegmatis (MTCC 6); test: Kirby-Bauer disk diffusion susceptibility test; format: cell-based; details: 10 μg lipopeptide per 6 mm disc, Mueller-Hinton agar, 24-48 h; duplicates, repeated thrice
Description: as §2

[6] = test system: Staphylococcus epidermidis (MTCC 435); test: Kirby-Bauer disk diffusion susceptibility test; format: cell-based; details: 10 μg lipopeptide per 6 mm disc, Mueller-Hinton agar, 24-48 h; duplicates, repeated thrice
Description: as §2

fungi = test: Kirby-Bauer disk diffusion susceptibility test; format: cell-based; details: 10 μg per disc
Description: as §2

[7] = test system: tested Gram-negative bacteria; test: Kirby-Bauer disk diffusion susceptibility test; format: cell-based; details: 10 μg per disc
Description: as §2

MRSA = test: Kirby-Bauer disk diffusion susceptibility test; format: cell-based, Staphylococcus aureus; details: clinical isolate; 10 μg lipopeptide per 6 mm disc, Mueller-Hinton agar, 24-48 h; duplicates, repeated thrice
Description: as §2

[8] = test system: Bacillus subtilis (MTCC 619); test: MIC, microtiter plate dilution assay; format: cell-based; details: 37°C, OD 600 nm at 24 and 48 h, triplicates
Description: (§3) The MIC of purified lipopeptide was evaluated by using a microtiter plate dilution assay. Test bacteria were grown to logarithmic phase under optimal conditions (up to 0.3 OD) and the test was performed in triplicates. To each well of the microtiter plate, 200 μl of fresh nutrient medium and 50 μl of bacterial suspension were added. Subsequently, different dilutions (50 μl) of freshly prepared samples were added to each well. The first column of the microtiter plate was left as a blank, containing fresh medium only. The microtiter plates were incubated at 37°C and OD was measured at 600 nm at 24 and 48 h using ELISA microplate reader (Bio-rad, Model 680XR).

[9] = test system: Methicillin Resistant Staphylococcus aureus (MRSA); test: MIC, microtiter plate dilution assay; format: cell-based; details: clinical strain, 37°C, OD 600 nm at 24 and 48 h, triplicates
Description: as §3

[10] = test system: Mycobacterium smegmatis (MTCC 6); test: MIC, microtiter plate dilution assay; format: cell-based; details: 37°C, OD 600 nm at 24 and 48 h, triplicates
Description: as §3

[11] = test system: Staphylococcus epidermidis (MTCC 435); test: MIC, microtiter plate dilution assay; format: cell-based; details: 37°C, OD 600 nm at 24 and 48 h, triplicates
Description: as §3

[12] = Effect of pH on lipopeptide activity; format: physicochemical; details: for Residual activity (%): residual antimicrobial activity
Text: (§4) All enzymes were purchased from Sigma Aldrich.

Heat stability assay = format: physicochemical; details: for Residual activity (%): residual antimicrobial activity
Text: as §4

lipase [13] = details: lipopeptide 1.0 mg/ml + lipase (~9 U/mg) 1.0 mg/ml in 50 mM phosphate buffer pH 7.0, equal volumes (20 μl each), 37°C, 12 h; residual activity by disc diffusion
Description: (§5) Sensitivity to temperature was determined by incubating the purified lipopeptide at different temperatures viz. 50°C, 60°C, 70°C, 80°C , 90°C, 100°C and 121°C for different durations. To determine the optimum pH for activity, purified compound was incubated over pH range of 3.0–12.0 for 30 min at 37°C. The sensitivity of the lipopeptide (1.0 mg/ml) to enzymes was tested against proteinase K (~30 U/mg), trypsin (~10,000 U/mg) and lipase (~9 U/mg). All enzymes were purchased from Sigma Aldrich. Enzyme solutions were prepared at 1.0 mg/ml in 50 mM phosphate buffer (pH 7.0). Equal volumes of enzyme solution and antimicrobial compound (20 μl each) were mixed and incubated at 37°C for 12 h. The enzyme reaction was terminated by heating reaction mixture at 80°C and residual activity was determined by disc diffusion method.

trypsin [14] = biological target: T1, trypsin; details: lipopeptide 1.0 mg/ml + trypsin (~10,000 U/mg) 1.0 mg/ml in 50 mM phosphate buffer pH 7.0, equal volumes (20 μl each), 37°C, 12 h; residual activity by disc diffusion
Description: as §5

proteinase K = biological target: T2, proteinase K (Parengyodontium album, UniProt P06873); test: Sensitivity to enzymes; format: in vitro ADME; details: lipopeptide 1.0 mg/ml + proteinase K (~30 U/mg) 1.0 mg/ml in 50 mM phosphate buffer pH 7.0, equal volumes (20 μl each), 37°C, 12 h; residual activity by disc diffusion
T2 construct: purchased Sigma Aldrich
T2 sequence (P06873 106-384): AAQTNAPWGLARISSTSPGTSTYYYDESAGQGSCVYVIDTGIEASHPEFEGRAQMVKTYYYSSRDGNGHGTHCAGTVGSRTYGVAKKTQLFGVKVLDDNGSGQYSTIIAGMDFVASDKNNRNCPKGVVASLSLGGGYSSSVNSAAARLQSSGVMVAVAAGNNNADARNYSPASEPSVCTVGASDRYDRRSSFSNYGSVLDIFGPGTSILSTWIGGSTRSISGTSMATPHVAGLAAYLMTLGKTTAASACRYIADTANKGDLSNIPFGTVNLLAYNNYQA
Text: as §4

[15] = test system: Chinese hamster ovary (CHO) cell line; test: cells; format: cell-based; details: 48 h; for growth inhibition: SRB, OD 540 nm
Description: In vitro cytotoxicity was evaluated using sulforhodamine B dye assay (Skehan et al. [1990]). The Chinese hamster ovary cell line (CHO) was used for the assay. Camptothecin (CPT), an anticancer drug was used as standard. The 96-well tissue culture plate, containing different concentrations of lipopeptide (2.5- 25 μg/ml) and CHO cells, was incubated for 48 h and the cell growth was stopped with trichloroacetic acid (50% TCA, 50 μl). The optical density (OD) was recorded at 540 nm on ELISA reader and percent growth inhibition was calculated.

[16] = Qualitative drop-collapse test; format: physicochemical; details: 2 μl mineral oil, 5 μl lipopeptide (10 μg, dissolved in water), drop shape after 1 min
Description: (§6) Biosurfactant property of lipopeptide was determined using the qualitative drop-collapse test (Youssef et al. [2004]). In this method, mineral oil (2 μl) was added to 96-well microtitre plate. The plate was equilibrated for 1 h at 37°C and 5 μl of the lipopeptide (10 μg, dissolved in water) was added to the surface of the oil and drop shape was observed after 1 min. The surface tension of a lipopeptide (0.2%, w/v) was measured using Du-Nouy-Ring method (Du Noüy and Pierre [1925]).

[17] = Surface tension, Du-Nouy-Ring method; format: physicochemical; details: lipopeptide 0.2% (w/v), lowered from 72
Description: as §6

In the case of paenibacterin, the resistance to lipase (lipase [1]) is given as “resistant” and the resistance to trypsin (trypsin [2]) is given as “resistant”.
With `Nc1ccc([N+](=O)[O-])cc1N` [positive mutagen, 4-Nitro-o-phenylenediamine, reference compound] the “number of revertant colonies” value ([3]; positive control, 20 μg plate^-1, compared with negative control) was “considerably higher”.
“ATGSHQ [lipopeptide, novel antimicrobial lipopeptide from Streptomyces amritsarensis; Ala-Thr-Gly-Ser-His-Gln, C-terminal amino acid linked to aliphatic chain -(CH2)7-CH2-(CH3)2-]” showed an inhibition zone [4] of 21 mm, an inhibition zone [5] of 15 mm and an inhibition zone [6] of 17 mm. For the same compound, the antimicrobial activity (fungi) was “did not show activity”, the antimicrobial activity [7] was “did not show activity” and the inhibition zone (MRSA) was 13 mm. The MIC [8] was 10 µg/mL, the MIC [9] was 45 µg/mL and the MIC [10] was 25 µg/mL. The MIC [11] was 15 µg/mL, the “change in activity profile” value ([12]; between pH 5.0–9.0) was “did not show any change” and the “Residual activity (%)” value ([12]; pH 2, 1 h/4°C) was 0%. For the same compound, the “Residual activity (%)” value ([12]; pH 3, 1 h/4°C) was 72.7%, the “Residual activity (%)” value ([12]; pH 4, 1 h/4°C) was 84.6% and the “Residual activity (%)” value ([12]; pH 5, 1 h/4°C) was 100%. For the same compound, the “Residual activity (%)” value ([12]; pH 6, 1 h/4°C) was 100%, the “Residual activity (%)” value ([12]; pH 7, 1 h/4°C) was 100% and the “Residual activity (%)” value ([12]; pH 8, 1 h/4°C) was 100%. The “Residual activity (%)” value ([12]; pH 9, 1 h/4°C) was 100%, the “Residual activity (%)” value ([12]; pH 10, 1 h/4°C) was 86.3% and the “Residual activity (%)” value ([12]; pH 11, 1 h/4°C) was 68.1%. For the same compound, the “Residual activity (%)” value ([12]; pH 12, 1 h/4°C) was 0%, the “Residual activity (%)” value (Heat stability assay; 50°C, 1 h) was 100% and the “Residual activity (%)” value (Heat stability assay; 60°C, 1 h) was 100%. The heat stability (Heat stability assay; 70°C for 1 h) was “completely stable”, the “Residual activity (%)” value (Heat stability assay; 70°C, 1 h) was 100% and the “Residual activity (%)” value (Heat stability assay; 80°C, 1 h) was 84.2%. The “Residual activity (%)” value (Heat stability assay; 90°C, 15 min) was 95.0%, the “Residual activity (%)” value (Heat stability assay; 100°C, 15 min) was 86.3% and the loss of activity (Heat stability assay; 100°C, 15 minutes incubation) was 13.7%. The “Residual activity (%)” value (Heat stability assay; 121°C, 15 min (304 KPa), autoclaving) was 81.8%, the “reduction of antimicrobial activity” value (Heat stability assay; after autoclaving (121°C for 15 min)) was 18.2% and the stability to lipase (lipase [13]) was “resistant”. The stability to trypsin (trypsin [14]) was “resistant”, the “stability to proteinase K” value (proteinase K) was “negligible loss in activity” and the mutagenicity ([3]; 50 and 100 μg/0.1 ml per plate, 48 hours at 37°C) was “non-mutagenic”. It also gave a growth inhibition ([15]; 2.5 μg/ml) of 2.9%, a growth inhibition ([15]; 6.25 μg/ml) of 16.8% and a growth inhibition ([15]; 12.5 μg/ml) of 19.25%. For the same compound, the growth inhibition ([15]; 18.75 μg/ml) was 23.28%, the growth inhibition ([15]; 25 μg/ml) was 28.9% and the drop-collapse test [16] was “collapsed the oil drop”. The “surface tension of water” value [17] was 37 mN m^−1.
Work on `CC[C@@]1(O)C(=O)OCc2c1cc1n(c2=O)Cc2cc3ccccc3nc2-1` [camptothecin, Camptothecin, reference compound] yielded an IC50 ([15]; Cricetulus griseus, CHO cells, SRB assay) of 0.959 µg/mL (≈ 2.75 µM).

From publication PMC4077001, “Purification and characterization of a novel lipopeptide from Streptomyces amritsarensis sp. nov. active against methicillin-resistant Staphylococcus aureus” (AMB Express, 2014)
